# Values of other authors in paper PMC4484741 (Nuclear medicine and biology, 2011).
# Read-outs that look alike come from different tables or passages of the source.
# Columns and labels:
# [1] = test system: pancreatic BCM; details: rats, PET
# [2] = target: GLP-1 receptor; details: read-out: Kd, affinity to GLP-1 receptor
molecule,measurement,setting,value
COc1cc2c(cc1O[11CH3])CCN1CC(CC(C)C)C(O)CC21 (centres unmarked) [[^11C]DTBZ],Time within which liver and pancreas uptake rose to a plateau,[1],≤ 15 min
COc1cc2c(cc1OCCC[18F])CCN1C[C@@H](CC(C)C)[C@H](O)C[C@H]21 [[^18F]FP-DTBZ],Time within which liver and pancreas uptake rose to a plateau,[1],≤ 15 min
"Exendin (9-39): truncated version of exendin-4, antagonist of GLP-1 receptor",Kd,[2],~3 nM
"Exendin-4: 39-amino acid peptide hormone from Gila monster saliva, agonist of GLP-1 receptor",half-life in vivo,,about 2.4 h
GLP-1: endogenous ligand of the GLP-1 receptor,half-life in vivo,fast degradation by dipeptidyl peptidase-4,1 to 2 min
